Experimental data: patent US20160066550A1, “Animal Model Expressing Luciferase under Control of the Myelin Basic Protein Promoter (MBP-luci) and Use of the Model for Bioluminescence In Vivo Imaging” (SANOFI, priority 2009, published 2016)
Read-outs that look alike come from different tables or passages of the source.

Key:
[1] = test system: MBP-luc line 171 heterozygous B6C3H mice; assay: MBP-luci bioimaging, cuprizone model, demyelination phase, line 171 heterozygous; format: in vivo, mouse
Experimental: (§1) Mice were imaged at week 0 (baseline), week 3 and week 4 data normalized to the week 0 baseline.
As described above, mice were injected with 250 mg/kg D-luciferin through SC, IP or IV. After 5 (intravenous) or 8 (intraperitoneal or SC) minutes, mice were imaged using the IVIS 100 (Xenogen) for 16 minutes (60 seconds imaging and 60 seconds interval for 8 pictures at bin size 8). To quantify bioluminescence, identical circular regions of interest were positioned to encircle each mouse head region, and the imaging signal was quantitated as average radiance (photons/s/cm2/steridian) using […] software (version 2.5, Xenogen). The head region of interest was kept constant in area and positioning within all experiments. Data were normalized to bioluminescence at the initiation of treatment for each animal.
as §1

MBP-luci mice = format: in vivo, mouse; details: 0.2% cuprizone diet; for imaging signal drop: MBP 5k-luci line 171 (B6C3)
Experimental: To quantify bioluminescence, identical circular regions of interest were positioned to encircle each mouse head region, and the imaging signal was quantitated as average radiance (photons/s/cm2/steridian) using […] software (version 2.5, Xenogen).
As further proof, a MBP 5k-luci line 171 (B6C3 strain) was tested. […] There was significant imaging signal drop with cuprizone treatment (demyelination). For example, there is 43% signal drop from wk 0 to wk 4 and 74% signal drop from wk 0 to wk 6.
Three different MBP-luci lines (line 171 B6C3H het strain, line 121 C57BL/6 heterozygous strain and line 171 B6C3H homozygous strain) were compared by bioimaging and Luxol Fast Blue (LFB; myelin stain) histology. Mice were placed on a diet containing 0.2% cuprizone for 4 or 5 weeks. Imaging data were normalized to week 0 baseline measurements. At the end of each study, mouse brains were harvested and serial paraffin sections were stained for myelin with LFB. Average qualitative LFB score (0 to 5) was shown in the chart of FIG. 21. […] Line 171 B6C3H homozygous mice had the largest bioimaging signal reduction during cuprizone food feeding in the reference to their base line imaging before cuprizone food feeding. For example, after three weeks on the cuprizone diet, 171 B6C3H homozygous mice had 72% signal reduction (week 3 reference to week 0, p<0.05), while line 171 B6C3H heterozygous mice had 45% bioimaging signal reduction (reference to week 0, p<0.05). Line 121 C57 BL/6 heterozygous mice had the smallest reduction in luciferase signal (33% reduction at week 3 over week 0, p<0.05).

| SMILES | imaging signal vs vehicle control ([1]; 10 mg/kg oral, week 3 and week 4 on cuprizone diet, first study (FIG. 17)) | cuprizone-induced bioimaging signal reduction ([1]; 10 mg/kg, week 3, second study (FIG. 18), vehicle 47% reduction, p=0.028) [%] | bioimaging signal increase ([1]; 10 mg/kg, week 4, second study (FIG. 18), vehicle 25% reduction) [%] | transgene activity compared to the vehicle control group ([1]; 10 mg/kg, weeks 3 and 4, second study (FIG. 18)) | imaging signal drop (MBP-luci mice; wk 0 to wk 4) [%] | imaging signal drop (MBP-luci mice; wk 0 to wk 6) [%] | reduction in luciferase signal (MBP-luci mice; week 3 over week 0, line 121 C57 BL/6 heterozygous, p<0.05) [%] | bioimaging signal reduction (MBP-luci mice; week 3 vs week 0, line 171 B6C3H heterozygous, p<0.05) [%] | bioimaging signal reduction (MBP-luci mice; week 3 vs week 0, line 171 B6C3H homozygous, p<0.05) [%] |
| --- | --- | --- | --- | --- | --- | --- | --- | --- | --- |
| OCCOCCN1CCN(C2=Nc3ccccc3Sc3ccccc32)CC1 [QTP, Quetiapine] | significant increases | 25 | 6 | significantly greater transgene activity |  |  |  |  |  |
| O=C(NN=C1CCCCC1)C(=O)NN=C1CCCCC1 [cuprizone, bis-cyclohexanone oxaidihydrazone] |  |  |  |  | 43 | 74 | 33 | 45 | 72 |
